Measurements taken from patent US20130216615A1, “Pharmaceutical Compositions Containing Dimethyl Fumarate” (priority 2012, published 2013).
Structures can show the parent of a compound that is named as a salt.

Assays:
[1] = human, in vivo
Method: (§1) A randomized, double-blind, placebo-controlled study in healthy adult volunteers was conducted in which a total of 56 subjects were randomized to receive 4 days' treatment with DMF 240 mg BID, DMF 240 mg TID, DMF 360 mg BID or placebo, with aspirin 325 mg or matching aspirin placebo administered 30 minutes before each DMF or DMF placebo dose. An additional 8 patients were assigned to a modified dosing group receiving DMF 120 mg or placebo 6 times daily (3 doses at hourly intervals in the morning and a further 3 doses at hourly intervals in the evening). There were 6 subjects per group, except for the modified dosing regimen, where an additional 2 subjects were assigned to placebo.
(§2) Flushing severity was assessed by 2 validated subject-reported measures, the global Flushing Severity Scale (GFSS) and the Flushing Severity Scale (FSS), which are adapted from the flushing scale described in Norquist J M, et al. Curr Med Res Opin 23:1547-1560 (2007). Both of these measures rate flushing severity on a scale of 0-10, where 0=no flushing, 1-3=mild flushing, 4-6=moderate flushing, 7-9=severe flushing, and 10=extreme flushing. The GFSS is a visual-analogue scale measuring redness, warmth, tingling and itching of the skin experienced over the preceding 24 h. Subjects completed the GFSS immediately before the first dose of study drug (0 h) on days 1 to 4, again at 0 h on day 5 and once more at follow-up on day 11. On the FSS, subjects rated their overall flushing and 4 items describing specific flushing symptoms (redness, warmth, tingling, itching) at the time of administration of the questionnaire. The FSS scale was administered at 16 time points over 12 h (Hours 0, 0.5, 1, 1.5, 2, 2.5, 3, 4, 5, 6, 7, 8, 9, 10, 11, 12) on days 1 to 4 and once on day 5 (24 h after the first day 4 dose) to assess the quality and intensity of subject-reported flushing symptoms in real time. Subjects rated 5 items relating only to the period since they last answered the questionnaire and/or received study drug.

[2] = PK of DMF with or without aspirin in healthy adult volunteers, plasma MMF; format: in vivo, human; conditions: aspirin 325 mg 30 minutes before each DMF dose
Method: The concentration of MMF was determined by high pressure liquid chromatography with tandem mass spectrometry, using […] as the internal standard. Further pharmacokinetic parameters were derived by non-compartmental analysis

[3] = Laser Doppler perfusion of facial skin during flushing; format: in vivo, human; conditions: aspirin pretreatment before DMF
Method: Laser Doppler perfusion was used as an exploratory quantitative measure of facial skin perfusion during flushing. This technique uses non-invasive imaging of superficial tissue blood perfusion, recorded as Blood Perfusion Units on a relative units scale. Laser Doppler perfusion was measured at the same 16 timepoints as the FSS.

[4] = Subject-reported flushing severity (GFSS, FSS); conditions: 325 mg non-enteric coated aspirin 30 minutes prior to DMF dosing, healthy volunteer study
Method: as §1, §2

Row | SMILES | flushing severity on the FSS [1] | mean GFSS score ([1]; 2 day) | effect of aspirin pretreatment on MMF concentration-time profiles [2] | magnitude of Doppler perfusion response [3] | occurrence and severity of flushing [4]
1 | COC(=O)/C=C/C(=O)OC [DMF, dimethyl fumarate] | mild to moderate | 1.5-3.5 |  |  | 
2 | CC(=O)Oc1ccccc1C(=O)O [aspirin] |  |  | no apparent effect | decreased | reduce the occurrence and severity of flushing
